Measurements reported in patent publication US20170190671A1, “BIS(ARYL)CATECHOL DERIVATIVES AS HERBICIDES” (E I DU PONT DE NEMOURS AND COMPANY, priority 2014, published 2017).

Columns and labels:
Format in all cases: in vivo
[1] = tested on: Italian ryegrass (Lolium multiflorum); test: Test C preemergence; conditions: Lolium multiflorum, pre-emergence, 336 h, scale 0 to 100, read-out: Plant response rating, Ryegrass, Italian
In short: (§1)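 Greenhouse test; preemergence on seeded loam-sand soil or spray on 1- to 4-leaf plants; solvent + surfactant vehicle; 13-15 day hold; visual comparison with controls; 0 (no effect)-100 (complete control).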

[2] = tested on: barnyardgrass (Echinochloa crus-galli); test: Test C preemergence; conditions: Echinochloa crus-galli, pre-emergence, read-out: Plant response rating, Barnyardgrass
In short: as §1

[3] = tested on: blackgrass (Alopecurus myosuroides); test: Test C preemergence; conditions: Alopecurus myosuroides, pre-emergence, 336 h, scale 0 to 100, read-out: Plant response rating, Blackgrass
In short: as §1

corn (Zea mays) = test: Test C preemergence; conditions: Zea mays, pre-emergence, 336 h, scale 0 to 100
In short: as §1

[4] = tested on: giant foxtail (Setaria faberii); test: Test C preemergence; conditions: Setaria faberi, pre-emergence, 336 h, scale 0 to 100, read-out: Plant response rating, Foxtail, Giant
In short: as §1

[5] = tested on: johnsongrass (Sorghum halepense); test: Test C preemergence; conditions: Sorghum halepense, pre-emergence, 336 h, scale 0 to 100, read-out: Plant response rating, Johnsongrass
In short: as §1

[6] = tested on: lambsquarters (Chenopodium album); test: Test C preemergence; conditions: Chenopodium album, pre-emergence, 336 h, scale 0 to 100, read-out: Plant response rating, Lambsquarters
In short: as §1

[7] = tested on: large (Lg) crabgrass (Digitaria sanguinalis); test: Test C preemergence; conditions: Digitaria sanguinalis, pre-emergence, 336 h, scale 0 to 100, read-out: Plant response rating, Crabgrass, Large
In short: as §1

[8] = tested on: pigweed (Amaranthus retroflexus); test: Test C preemergence; conditions: Amaranthus retroflexus, pre-emergence, 336 h, scale 0 to 100, read-out: Plant response rating, Pigweed
In short: as §1

[9] = tested on: ragweed (common ragweed, Ambrosia elatior); test: Test C preemergence; conditions: Ambrosia artemisiifolia, pre-emergence, 336 h, scale 0 to 100, read-out: Plant response rating, Ragweed
In short: as §1

soybean (Glycine max) = test: Test C preemergence; conditions: Glycine max, pre-emergence, scale 0 to 100, read-out: Plant response rating, Soybean
In short: as §1

[10] = tested on: velvetleaf (Abutilon theophrasti); test: Test C preemergence; conditions: Abutilon theophrasti, pre-emergence, scale 0 to 100, read-out: Plant response rating, Velvetleaf
In short: as §1

[11] = tested on: winter wheat (Triticum aestivum); test: Test C preemergence; conditions: Triticum aestivum, pre-emergence, 336 h, scale 0 to 100, read-out: Plant response rating, Wheat
In short: as §1

[12] = tested on: yellow nutsedge (Cyperus esculentus); test: Test C preemergence; conditions: Cyperus, pre-emergence, 336 h, scale 0 to 100, read-out: Plant response rating, Nutsedge, Yellow
In short: as §1

[13] = tested on: large (Lg) crabgrass (Digitaria sanguinalis); test: Test E preemergence; conditions: scale 0 to 100
From the text: Seeds of plant species selected from corn (Zea mays), soybean (Glycine max), velvetleaf (Abutilon theophrasti), cocklebur (common cocklebur, Xanthium strumarium), lambsquarters (Chenopodium album), wild poinsettia (Euphorbia heterophylla), palmer pigweed (Amaranthus palmeri), waterhemp (common waterhemp, Amaranthus rudis), surinam grass (Brachiaria decumbens), large (Lg) crabgrass (Digitaria sanguinalis), Brazilian crabgrass (Digitaria horizontalis), fall panicum (Panicum dichotomiflorum), giant foxtail (Setaria faberii), green foxtail (Setaria viridis), goosegrass (Eleusine indica), johnsongrass (Sorghum halepense), ragweed (common ragweed, Ambrosia elatior), barnyardgrass (Echinochloa crus-galli), sandbur (southern sandbur, Cenchrus echinatus), arrowleaf sida (Sida rhombifolia), Italian ryegrass (Lolium multiflorum), dayflower (Virginia (VA) dayflower, Commelina virginica), field bindweed (Convolvulus arvensis), morningglory (Ipomoea coccinea), nightshade (eastern black nightshade, Solanum ptycanthum), kochia (Kochia scoparia), yellow nutsedge (Cyperus esculentus), horseweed (Conyza canadensis), and hairy beggarticks (Bidens pilosa), were planted into a silt loam soil and treated preemergence with test chemicals formulated in a non-phytotoxic solvent mixture which included a surfactant.
At the same time, plants from these crop and weed species and also waterhemp_RES1, (ALS & Triazine resistant common waterhemp, Amaranthus rudis), and waterhemp_RES2, (ALS & HPPD resistant common waterhemp, Amaranthus rudis) were planted in pots containing Redi-Earth® planting medium (Scotts Company, 14111 Scottslawn Road, Marysville, Ohio 43041) comprising spaghnum peat moss, vermiculite, wetting agent and starter nutrients were treated with postemergence applications of test chemicals formulated in the same manner. Plants ranged in height from 2 to 18 cm for postemergence treatments (1- to 4-leaf stage). Treated plants and controls were maintained in a greenhouse for 14 to 21 days, after which time all species were compared to controls and visually evaluated. Plant response ratings, summarized in Table E, are based on a scale of 0 to 100 where 0 is no effect and 100 is complete control. A dash (-) response means no test result.

Fc1ccc(F)c(Oc2ncc(Cl)cn2)c1Oc1ncc(Cl)cn1 [Compound 34, 2,2′-[(3,6-difluoro-1,2-phenylene)bis(oxy)]bis[5-chloropyrimidine]]
pest or weed control at 31 g/ha ([1]; 31 g ai/ha, preemergence): 5%
pest or weed control at 62 g/ha ([1]; 62 g ai/ha, preemergence): 10%
pest or weed control at 125 g/ha ([1]; 125 g ai/ha, preemergence): 35%
pest or weed control at 16 g/ha ([1]; Preemergence, 16 g ai/ha): 0%
pest or weed control at 31 g/ha ([2]; 31 g ai/ha, preemergence, scale 0 to 100): 55%
pest or weed control at 62 g/ha ([2]; 62 g ai/ha, preemergence, scale 0 to 100): 85%
pest or weed control at 125 g/ha ([2]; 125 g ai/ha, preemergence, scale 0 to 100): 98%
pest or weed control at 16 g/ha ([2]; Preemergence, 16 g ai/ha, scale 0 to 100 (0 no effect, 100 complete control)): 20%
pest or weed control at 31 g/ha ([3]; 31 g ai/ha, preemergence): 0%
pest or weed control at 62 g/ha ([3]; 62 g ai/ha, preemergence): 60%
pest or weed control at 125 g/ha ([3]; 125 g ai/ha, preemergence): 70%
pest or weed control at 16 g/ha ([3]; Preemergence, 16 g ai/ha): 0%
Corn plant response rating (crop injury, 0 = no effect, 100 = complete kill) at 31 g/ha (corn (Zea mays); 31 g ai/ha, preemergence): 5%
Corn plant response rating (crop injury, 0 = no effect, 100 = complete kill) at 62 g/ha (corn (Zea mays); 62 g ai/ha, preemergence): 20%
Corn plant response rating (crop injury, 0 = no effect, 100 = complete kill) at 125 g/ha (corn (Zea mays); 125 g ai/ha, preemergence): 40%
Corn plant response rating (crop injury, 0 = no effect, 100 = complete kill) at 16 g/ha (corn (Zea mays); Preemergence, 16 g ai/ha): 0%
pest or weed control at 31 g/ha ([4]; 31 g ai/ha, preemergence): 98%
pest or weed control at 62 g/ha ([4]; 62 g ai/ha, preemergence): 100%
pest or weed control at 125 g/ha ([4]; 125 g ai/ha, preemergence): 100%
pest or weed control at 16 g/ha ([4]; Preemergence, 16 g ai/ha): 70%
pest or weed control at 31 g/ha ([5]; 31 g ai/ha, preemergence): 55%
pest or weed control at 62 g/ha ([5]; 62 g ai/ha, preemergence): 75%
pest or weed control at 125 g/ha ([5]; 125 g ai/ha, preemergence): 98%
pest or weed control at 16 g/ha ([5]; Preemergence, 16 g ai/ha): 50%
pest or weed control at 31 g/ha ([6]; 31 g ai/ha, preemergence): 90%
pest or weed control at 62 g/ha ([6]; 62 g ai/ha, preemergence): 100%
pest or weed control at 125 g/ha ([6]; 125 g ai/ha, preemergence): 98%
pest or weed control at 16 g/ha ([6]; Preemergence, 16 g ai/ha): 80%
pest or weed control at 31 g/ha ([7]; 31 g ai/ha, preemergence): 85%
pest or weed control at 62 g/ha ([7]; 62 g ai/ha, preemergence): 98%
pest or weed control at 125 g/ha ([7]; 125 g ai/ha, preemergence): 100%
pest or weed control at 16 g/ha ([7]; Preemergence, 16 g ai/ha): 80%
pest or weed control at 31 g/ha ([8]; 31 g ai/ha, preemergence): 100%
pest or weed control at 62 g/ha ([8]; 62 g ai/ha, preemergence): 100%
pest or weed control at 125 g/ha ([8]; 125 g ai/ha, preemergence): 100%
pest or weed control at 16 g/ha ([8]; Preemergence, 16 g ai/ha): 100%
pest or weed control at 31 g/ha ([9]; 31 g ai/ha, preemergence): 0%
pest or weed control at 62 g/ha ([9]; 62 g ai/ha, preemergence): 25%
pest or weed control at 125 g/ha ([9]; 125 g ai/ha, preemergence): 40%
pest or weed control at 16 g/ha ([9]; Preemergence, 16 g ai/ha): 0%
plant injury at 31 g/ha (soybean (Glycine max); 31 g ai/ha, preemergence): 20%
plant injury at 62 g/ha (soybean (Glycine max); 62 g ai/ha, preemergence): 45%
plant injury at 125 g/ha (soybean (Glycine max); 125 g ai/ha, preemergence): 55%
plant injury at 16 g/ha (soybean (Glycine max); Preemergence, 16 g ai/ha): 5%
pest or weed control at 31 g/ha ([10]; 31 g ai/ha, preemergence): 45%
pest or weed control at 62 g/ha ([10]; 62 g ai/ha, preemergence): 70%
pest or weed control at 125 g/ha ([10]; 125 g ai/ha, preemergence): 80%
pest or weed control at 16 g/ha ([10]; Preemergence, 16 g ai/ha): 35%
plant injury at 31 g/ha ([11]; 31 g ai/ha, preemergence): 0%
plant injury at 62 g/ha ([11]; 62 g ai/ha, preemergence): 15%
plant injury at 125 g/ha ([11]; 125 g ai/ha, preemergence): 10%
plant injury at 16 g/ha ([11]; Preemergence, 16 g ai/ha): 0%
pest or weed control at 31 g/ha ([12]; 31 g ai/ha, preemergence): 0%
pest or weed control at 62 g/ha ([12]; 62 g ai/ha, preemergence): 0%
pest or weed control at 125 g/ha ([12]; 125 g ai/ha, preemergence): 5%
pest or weed control at 16 g/ha ([12]; Preemergence, 16 g ai/ha): 0%
Plant response rating, Crabgrass, Large ([13]; 16 g ai/ha): 0
Plant response rating, Crabgrass, Large ([13]; 31 g ai/ha): 25
Plant response rating, Crabgrass, Large ([13]; 62 g ai/ha): 98
Plant response rating, Crabgrass, Large ([13]; 125 g ai/ha): 98
